# According to ChEMBL document CHEMBL1128829, “Synthesis and pharmacological activities of a novel tripeptide mimetic dopamine prodrug” (Bioorg Med Chem Lett, 1995):
# Where a SMILES comes first, the peptide text is derived from it.
# What was measured:
# [1] = Net water uptake by a carrier mediated transport (%cm) mechanism; assay type: ADME; conditions: buffer
# Rattus norvegicus [2] = test: Reduction of (+)-methamphetamine-induced rotational counts on unilateral-lesion rats at a dose of 9.60 mg/Kg after 1 h; assay type: functional
# Rattus norvegicus [3] = test: Reduction of (+)-methamphetamine-induced rotational counts on unilateral-lesion rats at a dose of 9.60 mg/Kg after 2 h; assay type: functional
# Rattus norvegicus [4] = species on record: Rattus norvegicus; test: Percent recovery after 90 min of incubation in a rat intestinal mucosa suspension at 37 degree Centigrade; assay type: functional, organism-based
# Rattus norvegicus [5] = species on record: Rattus norvegicus; test: Dimensionless membrane permeability (Pm) from in situ single-pass rat jejunal perfusion at a concentration of 0.1 mM; assay type: functional, organism-based
# Rattus norvegicus [6] = species on record: Rattus norvegicus; test: Percent recovery after 2 min of incubation in a rat intestinal mucosa suspension at 37 degree Centigrade; assay type: functional, organism-based
# [7] = Percent of oral bioavailability up to 1000 mg/day; assay type: ADME, organism-based; conditions: eutheria, in vivo
# Rattus norvegicus [8] = test: Reduction of (+)-methamphetamine-induced rotational counts on unilateral-lesion rats at a dose of 4.20 mg/Kg after 1 h; assay type: functional
SMILES,Activity [1],Counts of rotation (Rattus norvegicus [2]),Counts of rotation (Rattus norvegicus [3]),Recovery (Rattus norvegicus [4]),Permeability (Rattus norvegicus [5]),Recovery (Rattus norvegicus [6]),bioavailability [7],Counts of rotation (Rattus norvegicus [8])
N[C@@H](C(=O)N1CCC[C@H]1C(=O)N[C@H](Cc1ccc(O)c(O)c1)C(=O)O)c1ccc(O)cc1,1.64%,223 turns hr-1,247 turns hr-1,95%,1.53,–,–,–
NCC(=O)N[C@@H](Cc1ccccc1)C(=O)O (H-Gly-Phe-OH),–,–,–,–,–,19%,–,–
N[C@@H](Cc1ccc(O)c(O)c1)C(=O)O [LEVODOPA],0.03%,–,–,–,5.38,–,33%,287 turns hr-1
